Data as given in patent US20110020312A1, “METHODS FOR TREATMENT OF METABOLIC DISORDERS USING EPIMETABOLIC SHIFTERS, MULTIDIMENSIONAL INTRACELLULAR MOLECULES, OR ENVIRONMENTAL INFLUENCERS” (priority 2009, published 2011).

Test system: Lactate Dehydrogenase (LDH)
Assay: Western blot, Lactate Dehydrogenase levels
Assay type: cell-based, human
Procedure: The samples were processed and run on a 4-12% Bis-Tris Novex NuPAGE gel as described above. The gels were run, transferred and stained essentially as described above.
After transfer each blot was dried for 15-20 minutes, activated with methanol for 5 seconds, washed with water for 5 minutes, and TBST for 15 minutes. The blots were blocked for 1 hour with 5% blocking reagent in TBS-T at room temperature and then washed 3 times with TBS-T (1×-15′; 2×5′ each) and probed with the primary antibody for Lactate Dehydrogenase (abcam ab2101; polyclonal) in 5% BSA (at 1:1000 dilutions) by incubation overnight at 4 deg C. with shaking. After the overnight incubation with primary antibody for Lactate Dehydrogenase, the blots were washed 3 times with TBS-T (1×-15′; 2×5′ each) and probed with the secondary antibody (rabbit antigoat; 1:10,000 dilution) for 1 h at room temperature. After 1 h of incubation with secondary antibodies, the blots were washed 3 times with TBS-T (1×-15′; 2×5′ each) and then incubated with ECF reagent for 5 mins and then each blot scanned with 5100 Fuji Laser scanner at 25 uM resolution, 16 bit, green laser, at 400V and at 500 V.
The PACA2 samples were processed and the gels were run, transferred, stained and scanned essentially as described above.
The levels of LDH and PDH were determined by probing the blots successively with primary antibodies for LDH and PDH, essentially as described above.
The above blots were stripped by incubating for 30 minutes with methanol, followed by two 10 minute washes with TBS-T, then 30 minutes of incubation with Stripping buffer at 50 deg C., and followed by two washes with 100 ml or more of TBS-T for 30′ each. The blots were scanned in laser scanner to check for complete stripping. The blots were activated with methanol for 5 seconds, washed with water for 5 minutes, and TBST for 15 minutes. The blots were blocked for 1 hour with 5% blocking reagent in TBS-T at room temperature and then washed 3 times with TBS-T (1×-15′; 2×5′ each) and probed with the primary antibody for LDH or Bik in 5% BSA in TBS-T by incubation overnight at 4 deg C. with gentle shaking. The primary antibody for LDH was from Abcam ab2101; antigoat; at 1:1000 dilution. The primary antibody for Bik was from Cell Signaling #9942; antirabbit; at 1:1000 dilution. After incubation with primary antibodies, the membranes were washed 3 times with TBS-T (1×-15′; 2×5′ each) and probed with the secondary antibody (LDH antigoat; Jackson Laboratories) and Bik antirabbit; 1:10,000 dilution) for 1 h on the orbital tilting shaker at room temperature. After 1 h of incubation, the blots were washed 3 times with TBS-T (1×-15′; 2×5′ each) and incubated with ECF reagent for 5 minutes and then each blot scanned with 5100 Fuji Laser scanner at 25 uM resolution, 16 bit, green laser, at 400V and at 500 V.
The above blots were stripped by incubating for 30 minutes with methanol, followed by two 10 minute washes with TBS-T, then 30 minutes of incubation with stripping buffer at 50 deg C., and followed by two washes with 100 ml or more of TBS-T for 30′ each. The blots were activated with methanol for 5 seconds, washed with water for 5 minutes, and TBST for 15 minutes. The blots ere blocked for 1 hour with 5% blocking reagent in TBS-T at room temperature and then washed 3 times with TBS-T (1×-15′; 2×5′ each) and probed with the primary antibody for LDH in 5% BSA or 5% milk by incubation overnight at 4 deg C. with gentle shaking. The primary antibody for LDH 080309b1 (Abcam ab2101; antigoat) was at 1:1000 dilution in 5% BSA. The primary antibody for LDH 080309b2 (Abcam ab2101; antigoat) was at 1:1000 dilution in 5% milk. After incubation with primary antibodies, the membranes were washed 3 times with TBS-T (1×-15′; 2×5′ each) and probed with the secondary antibody (Jackson Immuno Research antigoat; 1:10,000 dilution; 305-055-045) for 1 h. […]

COC1=C(OC)C(=O)C(C/C=C(\C)CC/C=C(\C)CC/C=C(\C)CC/C=C(\C)CC/C=C(\C)CC/C=C(\C)CC/C=C(\C)CC/C=C(\C)CC/C=C(\C)CCC=C(C)C)=C(C)C1=O [Q10, Coenzyme Q10]
Lactate Dehydrogenase Average Volume as a % (HepG2, 5g24-50, 2 Experiments): 64%
Lactate Dehydrogenase Average Volume as a % (HepG2, 5g24-100, 2 Experiments): 106%
Lactate Dehydrogenase Average Volume as a % (HepG2, 5g48-50, 2 Experiments): 112%
Lactate Dehydrogenase Average Volume as a % (HepG2, 5g48-100, 2 Experiments): 121%
Lactate Dehydrogenase Normalized Volume (HepG2, 5g-50, 24 h): 7900
Lactate Dehydrogenase Normalized Volume (HepG2, 5g-50, 48 h): 5188
Lactate Dehydrogenase Normalized Volume (HepG2, 5g-100, 24 h): 6616
Lactate Dehydrogenase Normalized Volume (HepG2, 5g-100, 48 h): 7319
Lactate Dehydrogenase Average Volume as a % (HepG2, 22G24-50, 2 Experiments): 121%
Lactate Dehydrogenase Average Volume as a % (HepG2, 22G24-100, 2 Experiments): 144%
Lactate Dehydrogenase Average Volume as a % (HepG2, 22G48-50, 2 Experiments): 95%
Lactate Dehydrogenase Average Volume as a % (HepG2, 22G48-100, 2 Experiments): 67%
Lactate Dehydrogenase Normalized Volume (HepG2, 22G-50, 24 h): 7550
Lactate Dehydrogenase Normalized Volume (HepG2, 22G-50, 48 h): 6173
Lactate Dehydrogenase Normalized Volume (HepG2, 22G-100, 24 h): 7124
Lactate Dehydrogenase Normalized Volume (HepG2, 22G-100, 48 h): 9141
Lactate Dehydrogenase Normalized Volume (PACA2, 5g-50, 24 h): 5068
Lactate Dehydrogenase Normalized Volume (PACA2, 5g-50, 48 h): 2978
Lactate Dehydrogenase Normalized Volume (PACA2, 5g-100, 24 h): 3675
Lactate Dehydrogenase Normalized Volume (PACA2, 5g-100, 48 h): 2396
Lactate Dehydrogenase Normalized Volume (PACA2, 22G-50, 24 h): 10218
Lactate Dehydrogenase Normalized Volume (PACA2, 22G-50, 48 h): 2575
Lactate Dehydrogenase Normalized Volume (PACA2, 22G-100, 24 h): 7158
Lactate Dehydrogenase Normalized Volume (PACA2, 22G-100, 48 h): 3557
Lactate Dehydrogenase (LDH) expression (cancer): reduced
Lactate Dehydrogenase (LDH) expression (normal cells): minimal effect
